According to US8034561B2, “HIN-1, a tumor suppressor gene” (Dana-Farber Cancer Institute, Inc., priority 2001, dated 2011):

Tests used:
[1] = system: primary human bronchial epithelial cells; assay: Retinoic acid-induced mucinous differentiation, RT-PCR of hHIN-1, MUC2 and Tgase I mRNA; format: cell-based; conditions: 1 mM all-trans retinoic acid, 1 to 9 days
Description: Primary cultures of human bronchial epithelial cells were purchased from Clonetics (Walkersville, Md.) and were cultured in the presence or absence of 1 mM all-trans retinoic acid essentially as previously described [Koo et al. (1999) Am. J. Respir. Cell Mol. Biol. 20:43-52].
To test this hypothesis, the expression of hHIN-1 mRNA by RT-PCR during retinoic acid-induced mucinous differentiation of primary human bronchial epithelial cells was analyzed (FIG. 13). Primary human bronchial epithelial cells underwent squamous epithelial differentiation and expressed squamous cell markers such as transglutaminase I (Tgase I) in the absence of all-trans retinoic acid (FIG. 13). […] J. Respir. Cell Mol. Biol. 20:43-52]. […] Such expression kinetics are consistent with a role for HIN-1 as an inducer of this process.

hHIN-1 promoter region = assay: Extent of hHIN-1 promoter methylation by sequence analysis of bisulfite treated genomic DNA; format: cell-based, human; conditions: ZR-75-1 cells treated with 25 μM 5aza-C vs not treated, bisulfite sequencing
Excerpt: hHIN-1 methylation, loss of heterozygocity and mutation analysis. Searching the draft of the human genome sequence with the hHIN-1 cDNA sequence identified a genomic clone (CTB-36B8) containing the entire hHIN-1 gene, the proximal promoter region of which contained an apparent CpG island. To determine the location of methylated cytosines, genomic DNA was extracted from the cells, bisulfite treated and purified as previously described [Herman et al. (1998) Proc. Natl. Acad. Sci. USA 95:6870-6875]. PCR amplification was performed using the following primers designed to amplify the coding strand (nucleotides −345 to +72) of bisulfite treated DNA: forward primer-5′-[…]-3′ (SEQ ID NO:9) and reverse primer-5′-[…]-3′ (SEQ ID NO:10). […] PCR amplifications were performed as described above; PCR fragments were analyzed on 3% agarose gels.
(§1) To test for the consequence of promoter methylation on hHIN-1 expression, the effect of a DNA methyltransferase inhibitor (5-aza-2′-deoxycytidine; “5aza-C”) on hHIN-1 mRNA levels was analyzed. […] The expression of hHIN-1 mRNA was determined by RT-PCR analysis, while the extent of promoter methylation was evaluated by sequence analysis of bisulfite treated genomic DNA.

[2] = system: breast cancer cell lines with no detectable expression of hHIN-1; assay: Effect of DNA methyltransferase inhibitor on hHIN-1 mRNA levels (RT-PCR); format: cell-based, human; conditions: six breast cancer cell lines, 25 μM 5aza-C for three to ten days
Excerpt: Cell lines and tissue. BT-20, BT-474, BT-549, Hs578T, MCF-7, MDA-MB-231, MDA-MB-468, MDA-MB-435S, SK-BR-3, T47D, UACC-812, UACC-893, and ZR-75-1 breast cancer cell lines were obtained from the American Type Culture Collection (ATCC; Manassas, Va.). SUM-44, SUM-52, SUM-102, SUM149, SUM-159, SUM-185, SUM-190, SUM-225, SUM-229, and SUM-1315 cell lines were a generous gift of Dr. Steve Ethier (University of Michigan Medical Center). The HCC1937 BRCA1 minus cell line was obtained from Dr. Gail Tomlinson (University of Texas Southwestern Medical Center). The 21MT1, 21MT2, 21NT, and 21PT cell lines were obtained from Dr. Arthur Pardee (Dana-Farber Cancer Institute). Cells were grown in media recommended by the ATCC or by the establishing investigators. However, 48 hours prior to RNA extraction, all cell lines were switched to DMEM/F12 medium supplemented with 5% FBS in order to minimize gene expression differences due to culture conditions. […]
as §1

BT549 cells = assay: Colony assay after transfection with pCEP4 expression constructs; format: cell-based, human; conditions: stable transfectants selected with hygromycin for 2 weeks, crystal violet staining, compared to control pCEP4
Excerpt: Generation of hHIN-1 mammalian expression constructs and recombinant adenoviruses. […] For the generation of a recombinant adenovirus the hHIN-1 cDNA was PCR amplified and subcloned into the Kpn I-Xho I site of the pAd-Track-CMV adenoviral vector followed by recombination and adenovirus generation using the Ad-Easy™(Quantum Biotechnologies, Montreal, Canada) system [He et al. (1998) Proc. Natl. Acad. Sci. USA 95:2509-2514].
Colony assays, cell cycle analysis and western blot analysis. For colony assay experiments, cells in 100 mm plates were transfected with a mix of 42 μl of FuGene6 (Roche) and 21 μg of the indicated plasmid. 24 hours after transfection, 84% of the cells were plated into 2 T25 tissue culture flasks in medium without a selection drug. Twenty-four hours later the medium was replaced with selection medium containing hygromycin. Colonies were allowed to grow for 2 weeks after which they were visualized by crystal violet staining.
In order to investigate the effect of constitutive hHIN-1 expression on mammary cell growth, a mammalian expression construct containing hHIN-1 polypeptide encoding cDNA (pCEP4-HIN-1) was transfected into various breast cancer cell lines. Stable transfectants were selected in the presence of hygromycin for 2 weeks.

Molecule: CC1=C(/C=C/C(C)=C/C=C/C(C)=C/C(=O)O)C(C)(C)CCC1 [retinoic acid, all-trans retinoic acid]
- expression of hHIN-1 mRNA ([1]; RT-PCR, following retinoic acid treatment): correlated with the loss of a squamous marker (Tgase I) and preceded the induction of a marker for mucinous differentiation (MUC2)
- differentiation phenotype (MUC2 expression) ([1]; air-interface culture): differentiated into mucinous cells

Molecule: Nc1ncn([C@H]2C[C@H](O)[C@@H](CO)O2)c(=O)n1 [5aza-C, 5-aza-2′-deoxycytidine]
- extent of hHIN-1 promoter methylation (hHIN-1 promoter region): decrease in the extent of promoter methylation
- expression of hHIN-1 mRNA [2]: re-expression of hHIN-1 mRNA in all six cell lines

B1: hHIN-1: hHIN-1 polypeptide (SEQ ID NO:1), 104 amino acids, expressed from the pCEP4-HIN-1 mammalian expression construct (protein, listed as Homo sapiens)
chain: MKLAALLGLCVALSCSSARAFLVGSAKPVAQPVAALESAAEAGAGTLANPLGTLNPLKLLLSSLGIPVNHLIEGSQKCVAELGPQAVGAVKALKALLGALTVFG
- colony numbers / cell growth (BT549 cells): dramatic decrease in colony numbers
